Source: ChEMBL document CHEMBL4376868, “Structure-Activity Relationship Study of Novel 6-Aryl-2-benzoyl-pyridines as Tubulin Polymerization Inhibitors with Potent Antiproliferative Properties” (J Med Chem, 2020)
Activity calls are given as the source filed them. No cut-off for these calls is given here.

Experiments:
PC-3 = assay: Antiproliferative activity against human PC3 cells measured after 72 hrs by MTS assay; assay type: functional, cell-based; conditions: PC-3, 72 h
[1] = Antiproliferative activity against human PC3/TxR cells measured after 72 hrs by MTS assay; assay type: functional, cell-based
[2] = Antiproliferative activity against human DU145-TxR cells measured after 72 hrs by MTS assay; assay type: functional, cell-based
[3] = Antiproliferative activity against human M14/LCC6MDR1 cells measured after 72 hrs by MTS assay; assay type: functional, cell-based
M14 = assay: Antiproliferative activity against human M14 cells measured after 72 hrs by MTS assay; assay type: functional, cell-based; conditions: M14, 72 h
DU-145 = assay: Antiproliferative activity against human DU145 cells measured after 72 hrs by MTS assay; assay type: functional, cell-based; conditions: DU-145, 72 h
MDA-MB-231 = assay: Antiproliferative activity against human MDA-MB-231 cells measured after 72 hrs by MTS assay; assay type: functional, cell-based; conditions: MDA-MB-231, 72 h
MDA-MB-453 = assay: Antiproliferative activity against human MDA-MB-453 cells measured after 72 hrs by MTS assay; assay type: functional, cell-based; conditions: MDA-MB-453, 72 h
SK-BR-3 = assay: Antiproliferative activity against human SK-BR-3 cells measured after 72 hrs by MTS assay; assay type: functional, cell-based; conditions: SK-BR-3, 72 h
A-375 [4] = assay: Antiproliferative activity against human A375 cells measured after 72 hrs by MTS assay; assay type: functional, cell-based; conditions: A-375, 72 h
RPMI-7951 = assay: Antiproliferative activity against human RPMI7951 cells measured after 72 hrs by MTS assay; assay type: functional, cell-based; conditions: RPMI-7951, 72 h
Tubulin (Sus scrofa) [5] = target: T1, Tubulin (Sus scrofa) (UniProt P02554+P02550); assay: Inhibition of porcine brain tubulin polymerization at 10 uM measured at 30 secs interval for 65 mins by spectrophotometric method
T1 sequence (P02550 whole entry, looked up): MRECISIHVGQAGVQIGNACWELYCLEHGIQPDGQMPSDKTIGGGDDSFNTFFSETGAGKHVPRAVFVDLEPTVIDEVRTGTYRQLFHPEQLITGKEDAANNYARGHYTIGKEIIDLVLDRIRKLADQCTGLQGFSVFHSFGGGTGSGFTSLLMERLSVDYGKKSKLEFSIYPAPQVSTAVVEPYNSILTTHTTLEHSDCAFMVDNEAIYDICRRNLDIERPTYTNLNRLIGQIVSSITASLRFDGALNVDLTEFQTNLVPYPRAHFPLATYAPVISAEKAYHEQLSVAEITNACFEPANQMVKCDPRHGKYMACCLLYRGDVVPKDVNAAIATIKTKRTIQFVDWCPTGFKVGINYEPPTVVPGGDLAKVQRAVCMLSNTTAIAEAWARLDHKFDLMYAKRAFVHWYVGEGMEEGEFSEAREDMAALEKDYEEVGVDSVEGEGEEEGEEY
T1 sequence (P02554 whole entry, looked up): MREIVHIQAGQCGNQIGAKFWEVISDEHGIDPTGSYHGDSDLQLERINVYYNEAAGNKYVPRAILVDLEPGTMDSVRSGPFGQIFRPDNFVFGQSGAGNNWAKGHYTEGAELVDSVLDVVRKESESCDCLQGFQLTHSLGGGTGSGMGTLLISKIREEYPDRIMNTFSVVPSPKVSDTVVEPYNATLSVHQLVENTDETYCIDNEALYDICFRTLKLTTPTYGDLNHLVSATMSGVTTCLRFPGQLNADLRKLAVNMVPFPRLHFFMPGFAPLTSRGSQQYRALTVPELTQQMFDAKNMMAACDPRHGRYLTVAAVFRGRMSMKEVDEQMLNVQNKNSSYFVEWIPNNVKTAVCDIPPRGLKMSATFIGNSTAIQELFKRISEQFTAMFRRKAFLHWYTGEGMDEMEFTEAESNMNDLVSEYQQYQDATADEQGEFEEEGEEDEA

[6] = Resistance index, ratio of IC50 for antiproliferative activity against human PC3/TxR cells to IC50 for antiproliferative activity against human PC3 cells; assay type: functional
[7] = Resistance index, ratio of IC50 for antiproliferative activity against human DU145-TxR cells to IC50 for antiproliferative activity against human DU145 cells; assay type: functional
[8] = Resistance index, ratio of IC50 for antiproliferative activity against human M14/LCC6MDR1 cells to IC50 for antiproliferative activity against human M14 cells; assay type: functional
Tubulin (Sus scrofa) [9] = target: T1, Tubulin (Sus scrofa); assay: (§1) Inhibition of porcine brain tubulin polymerization measured at 30 secs interval for 65 mins by spectrophotometric method
Tubulin [10] = target: T2, Tubulin (Sus scrofa, UniProt P02554+P02550); assay: as §1
Tubulin (Sus scrofa) [11] = target: T1, Tubulin (Sus scrofa); assay: (§2) Binding affinity to porcine brain tubulin polymerization by surface plasmon analysis analysis
Tubulin [12] = target: T2, Tubulin; assay: as §2
A-375 [13] = assay: Antitumor activity against human A375 cells xenografted in ip dosed NSG mouse assessed as tumor growth inhibition administered 5 times per week for 14 days; assay type: functional, organism-based
[14] = Toxicity in human A375 cells xenografted NSG mouse assessed as decrease in body weight loss at 10 to 20 mg/kg, ip administered 5 times per week for 14 days measured 3 times a week during compound dosing; assay type: organism-based; conditions: in vivo, 336 h
A-375 [15] = assay: Antitumor activity against human A375 cells xenografted in NSG mouse assessed as reduction in tumor volume at 10 mg/kg, ip administered 5 times per week for 14 days relative to control; assay type: functional; parameters: scale not given: the % may be the effect or the level left
A-375 [16] = assay: Antitumor activity against human A375 cells xenografted in NSG mouse assessed as reduction in tumor weight at 10 mg/kg, ip administered 5 times per week for 14 days relative to control; assay type: functional; parameters: scale not given: the % may be the effect or the level left
A-375 [17] = assay: Antitumor activity against human A375 cells xenografted in NSG mouse assessed as reduction in tumor volume at 20 mg/kg, ip administered 5 times per week for 14 days relative to control; assay type: functional; parameters: scale not given: the % may be the effect or the level left
A-375 [18] = assay: Antitumor activity against human A375 cells xenografted in NSG mouse assessed as reduction in tumor weight at 20 mg/kg, ip administered 5 times per week for 14 days relative to control; assay type: functional; parameters: scale not given: the % may be the effect or the level left
A-375 [19] = assay: Antitumor activity against human A375 cells xenografted in NSG mouse assessed as reduction in tumor size at 10 to 20 mg/kg, ip administered 5 times per week for 14 days by digital caliper method; assay type: functional, organism-based
A-375 [20] = assay: Antitumor activity against human A375 cells xenografted in NSG mouse assessed as tumor necrosis at 10 to 20 mg/kg, ip administered 5 times per week for 14 days measured post-last dose by H and E staining-based microscopic analysis; assay type: functional, organism-based
A-375 [21] = assay: Antitumor activity against human A375 cells xenografted in ip dosed NSG mouse assessed as suppression of tumor growth by measuring decrease in number Ki67 positive cells administered 5 times per week for 14 days measured post-last dose by immunohistochemical analysis; assay type: functional, organism-based
A-375 [22] = assay: Antitumor activity against human A375 cells xenografted in NSG mouse assessed as disruption of tumor vasculature development by measuring decrease in CD31 staining at 10 to 20 mg/kg, ip administered 5 times per week for 14 days measured post-last dose by immunohistochemical analysis; assay type: functional, organism-based
A-375 [23] = assay: Antitumor activity against human A375 cells xenografted in NSG mouse assessed as increase in cleaved PARP level at 10 to 20 mg/kg, ip administered 5 times per week for 14 days measured post-last dose by immunohistochemical analysis; assay type: functional, organism-based

Row | Structure (SMILES) | IC50 (PC-3) [nM] | IC50 [1] [nM] | IC50 [2] [nM] | IC50 [3] [nM] | IC50 (M14) [nM] | IC50 (DU-145) [nM] | IC50 (MDA-MB-231) [nM] | IC50 (MDA-MB-453) [nM] | IC50 (SK-BR-3) [nM] | IC50 (A-375 [4]) [nM] | IC50 (RPMI-7951) [nM] | inhibition (Tubulin (Sus scrofa) [5]) | further results
1 | CC(=O)O[C@H]1C(=O)[C@@]2(C)[C@H]([C@H](OC(=O)c3ccccc3)[C@]3(O)C[C@H](OC(=O)[C@H](O)[C@@H](NC(=O)c4ccccc4)c4ccccc4)C(C)=C1C3(C)C)[C@]1(OC(C)=O)CO[C@@H]1C[C@@H]2O [PACLITAXEL] | 1.9 | 148 | > 1000 | 200 | – | – | – | – | – | – | – | – | –
2 | COc1cc2c(c(OC)c1OC)-c1ccc(OC)c(=O)cc1[C@@H](NC(C)=O)CC2 [COLCHICINE] | 19 | 56.3 | > 1000 | 1400 | 9.3 | 17.3 | – | – | – | – | – | – | –
3 | COc1cc(C(=O)c2cccc(-c3ccc(C)cc3)n2)cc(OC)c1OC | – | – | – | – | 4.9 | – | 4.9 | 5 | 4.8 | 5.9 | 7.2 | Active | –
4 | COc1cc(C(=O)c2cccc(-c3ccc(C)c(O)c3)n2)cc(OC)c1OC | 1.7 | 2.5 | 2.8 | 1.4 | 0.9 to 1.7 | 3.7 | 1.7 | 1.2 | 2.8 | 1.5 | 1.7 | Active | Ratio IC50 [6]: 1.5; Ratio IC50 [7]: 0.8; Ratio IC50 [8]: 1.5; inhibition (Tubulin (Sus scrofa) [9]): Dose-dependent effect; IC50 (Tubulin [10]): 5000 to 10000 nM; Activity (Tubulin (Sus scrofa) [11]): Dose-dependent effect; Kd (Tubulin [12]): 2660 nM; TGI (A-375 [13]): Dose-dependent effect; Activity [14]: Non-Toxic; Activity (A-375 [15]): 58.54%; Activity (A-375 [16]): 48.81%; Activity (A-375 [17]): 88.5%; Activity (A-375 [18]): 83.33%; Activity (A-375 [19]): Active; Activity (A-375 [20]): Active; Activity (A-375 [21]): Dose-dependent effect; Activity (A-375 [22]): Active; Activity (A-375 [23]): Active
